According to patent US11034650B2, “Compounds useful for treating a Mannheimia haemolytica or Histophilus somni infection” (Intervet Inc., priority 2016, dated 2021):
≈ marks a conversion by molar mass, not a printed value.

Key:
Format in all cases: cell-based
[1] = test system: Pasteurella multocida PM 6391 (ATCC 43137, reference strain); experiment: MIC, broth-microdilution (CLSI VET01-A4), strain PM 6391; settings: Pasteurella multocida strain PM 6391, broth-microdilution; unit assumed
Method: For example, representative compounds were tested against ***, Mannheimia haemolytica and Pasteurella multocida, using the conventional broth-dilution assay.
The Minimum inhibitory concentrations (MIC) of compounds according to the invention for a number of veterinary bacterial pathogens were determined by the broth-microdilution method according to CLSI document VET01-A4.
Microdilution trays containing a doubling dilution series of the test compound were used for the tests. The MIC results were interpreted according to the CLSI documents VET01-S3. The lowest concentration of compound at which no visible growth (i.e. no turbidity) detected by the unaided eye was recorded as the MIC.

[2] = test system: Pasteurella multocida PM 12080 (IV102277-0093, BRD field isolate); experiment: MIC, broth-microdilution (CLSI VET01-A4), strain PM 12080; settings: Pasteurella multocida strain PM 12080, broth-microdilution; unit assumed
Summary of the method: (§1)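 Compounds were serially diluted twofold in microdilution trays. Growth was judged by eye, and the MIC was the lowest concentration showing no turbidity. Results were interpreted per CLSI VET01-S3.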

[3] = test system: Mannheimia haemolytica MH 6357 (M7/2, reference strain, cattle infection strain); experiment: MIC, broth-microdilution (CLSI VET01-A4), strain MH 6357; settings: Mannheimia haemolytica strain MH 6357, broth-microdilution; unit assumed
Summary of the method: as §1

[4] = test system: Mannheimia haemolytica MH 10720 (154, BRD field isolate); experiment: MIC, broth-microdilution (CLSI VET01-A4), strain MH 10720; settings: Mannheimia haemolytica strain MH 10720, broth-microdilution; unit assumed
Summary of the method: as §1

[5] = test system: Mannheimia haemolytica MH 12587 (1071, BRD field isolate, macrolide-resistance: erm+, E+); experiment: MIC, broth-microdilution (CLSI VET01-A4), strain MH 12587; settings: Mannheimia haemolytica strain MH 12587, broth-microdilution; unit assumed
Summary of the method: as §1

[6] = test system: Mannheimia haemolytica MH 13065 (XB0446-6003.9, BRD field isolate); experiment: MIC, broth-microdilution (CLSI VET01-A4), strain MH 13065; settings: Mannheimia haemolytica strain MH 13065, broth-microdilution; unit assumed
Summary of the method: as §1

[7] = test system: Pasteurella multocida PM 10775 (080130003051, BRD field isolate); experiment: MIC, broth-microdilution (CLSI VET01-A4), strain PM 10775; settings: Pasteurella multocida strain PM 10775, broth-microdilution; unit assumed
Summary of the method: as §1

[8] = test system: Mannheimia haemolytica MH 6374 (ATCC 33396, reference strain); experiment: MIC, broth-microdilution (CLSI VET01-A4), strain MH 6374; settings: Mannheimia haemolytica strain MH 6374, broth-microdilution; unit assumed
Summary of the method: as §1

[9] = test system: Pasteurella multocida PM 6267 (P 2225 (L386), reference strain, mouse infection strain); experiment: MIC, broth-microdilution (CLSI VET01-A4), strain PM 6267; settings: Pasteurella multocida strain PM 6267, broth-microdilution; unit assumed
Summary of the method: as §1

[10] = test system: Mannheimia haemolytica MH 13093 (XB0472-6014.1, BRD field isolate); experiment: MIC, broth-microdilution (CLSI VET01-A4), strain MH 13093; settings: Mannheimia haemolytica strain MH 13093, broth-microdilution; unit assumed
Summary of the method: as §1

| MIC PM 6391 [1] [µg/mL] | MIC PM 12080 [2] [µg/mL] | MIC PM 10775 [7] [µg/mL] | MIC PM 6267 [9] [µg/mL] | SMILES | MIC MH 6357 [3] [µg/mL] | MIC MH 10720 [4] [µg/mL] | MIC MH 12587 [5] [µg/mL] | MIC MH 13065 [6] [µg/mL] | MIC MH 6374 [8] [µg/mL] | MIC MH 13093 [10] [µg/mL] |
| --- | --- | --- | --- | --- | --- | --- | --- | --- | --- | --- |
| 0.8 (≈ 1.85 µM) | 0.4 (≈ 0.923 µM) | ≤ 0.1 | 0.2 (≈ 0.461 µM) | CC(C)[C@H](NC(=O)c1ccc(C#Cc2ccc(CN3CCCCC3)cc2)cc1)C(=O)NO [Compound 166] | 3.1 (≈ 7.15 µM) | 0.8 (≈ 1.85 µM) | 6.3 (≈ 14.5 µM) | 6.3 (≈ 14.5 µM) | 6.3 (≈ 14.5 µM) | 6.3 (≈ 14.5 µM) |
| 0.4 (≈ 0.876 µM) | 0.2 (≈ 0.438 µM) | ≤ 0.1 | ≤ 0.1 | CC(C)[C@H](NC(=O)c1ccc(C#Cc2ccc(CNCc3cccnc3)cc2)cc1)C(=O)NO [Compound 167] | 0.4 (≈ 0.876 µM) | ≤ 0.1 | 0.8 (≈ 1.75 µM) | 0.8 (≈ 1.75 µM) | 0.4 (≈ 0.876 µM) | 0.8 (≈ 1.75 µM) |
| 0.4 (≈ 0.815 µM) | 0.2 (≈ 0.407 µM) | ≤ 0.1 | ≤ 0.1 | CC(C)[C@H](NC(=O)c1ccc(C#Cc2ccc(CNCc3ccnc(Cl)c3)cc2)cc1)C(=O)NO [Compound 168] | 0.4 (≈ 0.815 µM) | 0.2 (≈ 0.407 µM) | 1.6 (≈ 3.26 µM) | 0.8 (≈ 1.63 µM) | 0.8 (≈ 1.63 µM) | 0.8 (≈ 1.63 µM) |
| 0.4 (≈ 0.876 µM) | 0.4 (≈ 0.876 µM) | ≤ 0.1 | ≤ 0.1 | CC(C)[C@H](NC(=O)c1ccc(C#Cc2ccc(CNCc3ccccn3)cc2)cc1)C(=O)NO [Compound 169] | 0.4 (≈ 0.876 µM) | 0.2 (≈ 0.438 µM) | 1.6 (≈ 3.5 µM) | 0.8 (≈ 1.75 µM) | 0.8 (≈ 1.75 µM) | 0.8 (≈ 1.75 µM) |
| 0.4 (≈ 0.898 µM) | 0.2 (≈ 0.449 µM) | ≤ 0.1 | ≤ 0.1 | CC(C)[C@H](NC(=O)c1ccc(C#Cc2ccc(CNCc3ccco3)cc2)cc1)C(=O)NO [Compound 170] | 0.2 (≈ 0.449 µM) | ≤ 0.1 | 0.4 (≈ 0.898 µM) | 0.4 (≈ 0.898 µM) | 0.4 (≈ 0.898 µM) | 0.4 (≈ 0.898 µM) |
| 0.2 (≈ 0.433 µM) | ≤ 0.1 | ≤ 0.1 | ≤ 0.1 | CC(C)[C@H](NC(=O)c1ccc(C#Cc2ccc(CNCc3cccs3)cc2)cc1)C(=O)NO [Compound 171] | 0.2 (≈ 0.433 µM) | ≤ 0.1 | 0.8 (≈ 1.73 µM) | 0.2 (≈ 0.433 µM) | 0.4 (≈ 0.867 µM) | 0.4 (≈ 0.867 µM) |
| 0.4 (≈ 0.852 µM) | 0.4 (≈ 0.852 µM) | ≤ 0.1 | 0.2 (≈ 0.426 µM) | Cc1ccc(CNCc2ccc(C#Cc3ccc(C(=O)N[C@H](C(=O)NO)C(C)C)cc3)cc2)cc1 [Compound 172] | 0.4 (≈ 0.852 µM) | 0.4 (≈ 0.852 µM) | 1.6 (≈ 3.41 µM) | 0.8 (≈ 1.7 µM) | 0.8 (≈ 1.7 µM) | 0.8 (≈ 1.7 µM) |
| 0.8 (≈ 1.8 µM) | 0.4 (≈ 0.898 µM) | ≤ 0.1 | ≤ 0.1 | CC(C)[C@H](NC(=O)c1ccc(C#Cc2ccc(CNCc3ncc[nH]3)cc2)cc1)C(=O)NO [Compound 173] | 3.1 (≈ 6.96 µM) | 0.8 (≈ 1.8 µM) | 6.3 (≈ 14.1 µM) | 6.3 (≈ 14.1 µM) | 3.1 (≈ 6.96 µM) | 6.3 (≈ 14.1 µM) |
| 1.6 (≈ 3.69 µM) | 1.6 (≈ 3.69 µM) | ≤ 0.1 | 0.4 (≈ 0.923 µM) | CC[C@H](C)[C@H](NC(=O)c1ccc(C#Cc2ccc(CN3CCCC3)cc2)cc1)C(=O)NO [Compound 174] | 3.1 (≈ 7.15 µM) | 0.8 (≈ 1.85 µM) | 6.3 (≈ 14.5 µM) | 6.3 (≈ 14.5 µM) | 6.3 (≈ 14.5 µM) | 6.3 (≈ 14.5 µM) |
| 1.6 (≈ 3.46 µM) | 0.8 (≈ 1.73 µM) | ≤ 0.1 | 0.4 (≈ 0.865 µM) | CC[C@H](C)[C@H](NC(=O)c1ccc(C#Cc2ccc(CN3CCN(C)CC3)cc2)cc1)C(=O)NO [Compound 175] | 6.3 (≈ 13.6 µM) | 3.1 (≈ 6.7 µM) | 25 (≈ 54 µM) | 12.5 (≈ 27 µM) | 12.5 (≈ 27 µM) | 12.5 (≈ 27 µM) |
| 3.1 (≈ 7.61 µM) | 1.6 (≈ 3.93 µM) | ≤ 0.1 | 0.8 (≈ 1.96 µM) | CCNCc1ccc(C#Cc2ccc(C(=O)N[C@H](C(=O)NO)[C@@H](C)CC)cc2)cc1 [Compound 176] | 3.1 (≈ 7.61 µM) | 3.1 (≈ 7.61 µM) | 12.5 (≈ 30.7 µM) | 6.3 (≈ 15.5 µM) | 6.3 (≈ 15.5 µM) | 12.5 (≈ 30.7 µM) |
